Each structure is given as a SMILES string.

The values that follow come from patent US12011439B2, “Combination therapy using C—C chemokine receptor 4 (CCR4) antagonists and one or more immune checkpoint inhibitors” (CHEMOCENTRYX, INC., priority 2018, dated 2024).

In test [1] the target is T1, mCCR4 (Mus musculus, UniProt P51680).
T1 sequence (P51680 1-360): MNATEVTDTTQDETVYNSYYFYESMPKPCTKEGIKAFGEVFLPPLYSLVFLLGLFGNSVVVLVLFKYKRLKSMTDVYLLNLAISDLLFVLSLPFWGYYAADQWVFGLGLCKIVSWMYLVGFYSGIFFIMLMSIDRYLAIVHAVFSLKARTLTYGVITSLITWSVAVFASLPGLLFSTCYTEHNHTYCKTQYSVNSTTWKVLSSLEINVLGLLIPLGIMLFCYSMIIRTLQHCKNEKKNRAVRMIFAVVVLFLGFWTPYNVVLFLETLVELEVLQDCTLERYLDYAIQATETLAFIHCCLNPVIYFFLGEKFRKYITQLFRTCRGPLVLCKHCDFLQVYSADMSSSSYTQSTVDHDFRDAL
Kind of test: CCL22 chemotaxis, mouse CCR4 cells. The class given is cell-based. Particulars: Mouse mCCR4-Baf3 cells.

Test [2] addresses T2, CCR4 (Homo sapiens, UniProt P51679).
T2 sequence (P51679 1-360): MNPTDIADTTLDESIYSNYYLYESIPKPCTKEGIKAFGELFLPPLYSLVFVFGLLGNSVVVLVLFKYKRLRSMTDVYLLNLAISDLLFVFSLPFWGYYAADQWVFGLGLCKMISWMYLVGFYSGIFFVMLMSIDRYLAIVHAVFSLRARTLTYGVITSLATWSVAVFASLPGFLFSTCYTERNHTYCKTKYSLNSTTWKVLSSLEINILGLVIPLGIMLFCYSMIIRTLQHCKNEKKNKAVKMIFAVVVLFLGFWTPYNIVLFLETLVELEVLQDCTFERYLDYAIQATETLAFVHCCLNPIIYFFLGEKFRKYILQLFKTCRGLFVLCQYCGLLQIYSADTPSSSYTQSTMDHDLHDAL
Put plainly: CCL22 chemotaxis, human cells. The class given is cell-based.

Test [3] deals with T1, mCCR4. Put plainly: 125I-CCL17 binding, mouse CCR4 cells. Particulars: Mouse mCCR4-293 cells, buffer.
For test [4], the target named is T2, CCR4. Kind of test: Compound 1 selectivity panel, buffer IC50. It is filed as cell-based. The method, then: (§1) The selectivity of Compound 1 was tested by determining the IC50 value against a diverse panel of receptors, enzymes, and ion channels. […] See, Table 1.
For the next test, the target named is T3, CCR10 (Homo sapiens, UniProt P46092).
T3 sequence (P46092 1-362): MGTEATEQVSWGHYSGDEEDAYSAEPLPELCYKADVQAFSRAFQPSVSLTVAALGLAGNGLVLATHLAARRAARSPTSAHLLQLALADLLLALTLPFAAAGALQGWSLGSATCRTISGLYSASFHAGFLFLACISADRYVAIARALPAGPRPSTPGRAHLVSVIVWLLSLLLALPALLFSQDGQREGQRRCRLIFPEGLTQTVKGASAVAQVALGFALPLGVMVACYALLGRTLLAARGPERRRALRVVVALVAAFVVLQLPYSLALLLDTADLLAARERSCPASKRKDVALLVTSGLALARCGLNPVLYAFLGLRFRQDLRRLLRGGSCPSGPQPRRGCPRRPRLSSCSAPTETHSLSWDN
Put plainly: Compound 1 selectivity panel, buffer IC50. The class given is cell-based. Particulars: Receptor CCR10. The protocol:
as §1

For a further test, the target named is T4, CCR9 (Homo sapiens, UniProt P51686).
T4 sequence (P51686 1-369): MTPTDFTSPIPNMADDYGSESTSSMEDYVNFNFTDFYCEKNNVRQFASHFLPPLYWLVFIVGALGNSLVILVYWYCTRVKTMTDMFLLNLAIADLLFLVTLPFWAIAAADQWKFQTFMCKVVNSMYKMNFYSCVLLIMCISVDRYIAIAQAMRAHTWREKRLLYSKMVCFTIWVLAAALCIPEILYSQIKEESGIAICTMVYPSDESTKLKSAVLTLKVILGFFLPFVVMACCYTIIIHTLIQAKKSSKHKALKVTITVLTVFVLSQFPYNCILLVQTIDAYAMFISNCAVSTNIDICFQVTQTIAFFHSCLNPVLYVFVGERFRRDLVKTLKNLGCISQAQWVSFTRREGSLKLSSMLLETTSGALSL
Kind of test: Compound 1 selectivity panel, buffer IC50. The class given is cell-based. Particulars: Receptor CCR9. The protocol: as §1

In another test the target is T5, Duffy (Homo sapiens, UniProt Q16570).
T5 sequence (Q16570 1-336): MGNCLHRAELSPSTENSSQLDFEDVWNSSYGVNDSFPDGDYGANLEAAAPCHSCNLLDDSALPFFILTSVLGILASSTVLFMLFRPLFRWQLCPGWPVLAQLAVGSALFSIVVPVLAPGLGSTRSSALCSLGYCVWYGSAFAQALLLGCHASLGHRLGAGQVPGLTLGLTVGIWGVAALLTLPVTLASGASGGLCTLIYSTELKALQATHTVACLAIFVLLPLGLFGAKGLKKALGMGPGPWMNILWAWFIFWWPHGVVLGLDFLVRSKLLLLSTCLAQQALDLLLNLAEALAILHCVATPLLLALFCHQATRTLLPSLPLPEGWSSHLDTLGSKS
Put plainly: Compound 1 selectivity panel, buffer IC50. The class given is cell-based. Particulars: Receptor Duffy. The protocol: as §1

The next test concerns the target CXCR7 (Homo sapiens, UniProt P25106). Kind of test: Compound 1 selectivity panel, buffer IC50. The class given is cell-based. Particulars: Receptor CXCR7. The protocol:
as §1

The target in test [5] is T2, CCR4. Kind of test: 125I-CCL17 binding, human cells. Particulars: buffer.

Chain of CXCR7 (P25106 whole entry, species assumed): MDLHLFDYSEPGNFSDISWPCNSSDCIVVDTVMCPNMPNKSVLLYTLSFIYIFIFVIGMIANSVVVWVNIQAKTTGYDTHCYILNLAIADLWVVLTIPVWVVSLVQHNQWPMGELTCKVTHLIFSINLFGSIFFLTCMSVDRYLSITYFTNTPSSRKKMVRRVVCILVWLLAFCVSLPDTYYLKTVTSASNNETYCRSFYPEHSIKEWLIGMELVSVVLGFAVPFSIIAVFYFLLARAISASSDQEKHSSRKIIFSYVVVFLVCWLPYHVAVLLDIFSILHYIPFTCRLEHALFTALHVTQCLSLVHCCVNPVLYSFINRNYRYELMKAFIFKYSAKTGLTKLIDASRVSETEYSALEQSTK

The IC50 is the concentration that gives 50% inhibition. As to `C[C@@H](Nc1cc(C2CCN([C@H]3CCCN(CCC(=O)O)C3)CC2)ccc1Cl)c1ccc(Cl)cc1Cl` [Compound 1], the “Chemotaxis A2” value at mCCR4 [1] (100% serum) is listed as 60 nM; at mCCR4 [1] (buffer), 4 nM; on CCR4 [2] (Human CEM cells, 100% serum) it was 20 nM; at CCR4 [2] (Human CEM cells, buffer) it was 2 nM; on CCR4 [2] (Human lymphocytes, 100% serum) it was 20 nM; at CCR4 [2] (Human lymphocytes, buffer), 10 nM. In addition, the 50% inhibitory concentration (IC50) was 0.027 µM at mCCR4 [3]; 0.002 µM at CCR4 [4] (Receptor CCR4, buffer); greater than 10 µM at CCR10; greater than 10 µM on CCR9; greater than 10 µM against Duffy; greater than 10 µM at CXCR7. For the same compound, the IC50 was 0.023 µM on CCR4 [5] (Human CEM cells) and 0.037 µM on CCR4 [5] (Human lymphocytes). Besides, the “Selectivity against a diverse panel of receptors, enzymes, and ion channels” value on CCR4 [4] (in words) was “highly specific for CCR4”.
